In the series the test system is partial liver transplant. Nature of the series: Liver regeneration-promoting effect in rat 30% orthotopic partial liver transplantation. To be noted: for Relative liver gain: (liver weight on day 5) / (liver weight on day 0); for Relative liver gain / Liver weight gain: transfusion 50 ml/kg/day up to day 5, mean±SD; for Liver weight gain: (liver weight on day 5) − (liver weight on day 0). Format: in vivo. The procedure: Male Wistar rats at 8 weeks of age (240-280g; 8-9 animals per group) were used for 30% orthotopic partial liver transplantation. Isolation of the liver from donors was performed as follows. Animals were abdominally incised under ether anesthesia and about 70% of the liver was resected and the common bile duct and arteries were separated immediately before starting liver perfusion with cold physiological saline from the portal vein. After starting perfusion, the remaining liver with the portal vein and the posterior vena cava-was removed from the donor animal. Recipients were abdominally incised under Nembutal anesthesia and the whole liver was resected and the upper end of the posterior vena cava of the graft was continuously sutured (7-0 proline) with the proximal end of the posterior vena cava of the recipients. The donor posterior vena cava of the graft was sutured end-to-end with that of the recipient, and the portal vein and common bile duct of the graft were anastomosed with those of the recipient, respectively, by the cuff technique. The operation period was 45 minutes on average, the […] period was within 900 seconds, and the total period for cold-storing the graft was 1 hour. Immediately after the operation was completed, a catheter was inserted from the jugular vein. The catheter was passed through the subcutaneous tunnel across both scapulae, and connected to a swivel through a protective coil after a harness was put on the animal. Rats were transferred to a metabolic cage and divided into the following two groups and continuously pumped with the transfusion formula at an administration rate of 50 ml/kg/day up to day 5. Valine group: An aqueous solution of L-valine (Japanese Pharmacopoeia) at 3.376% was transfused in combination with glucose at 5% on the day of operation and 20% on days 1-5. Control group: A solution of a 10% amino acid blend formula (Moripron F® made by Roussel Morishita Co., Ltd.) diluted in distilled water at a total nitrogen level equivalent to that of the valine group was transfused in combination with glucose at 5% on the day of operation and 20% on days 1-5. Animals were given free access to normal feed and water. On day 5, animals were abdominally incised under ether anesthesia and blood was collected from the abdominal aorta and the liver was separated after bleeding. Serum protein (TP), albumin (ALB), GOT, GPT and LDH and the liver weight were determined. The resected liver was fixed with formalin to prepare a hematoxylin-eosin stained sample for histological tests. The measurement results were expressed in mean±SD and statistically analyzed by the Mann-Whitney U test to show a significant difference if p<0.05. Liver weight gain and relative liver gain were determined as morphologic indications of the liver-regenerating effect. Here, the liver weight gain means (liver weight on day 5)-(liver weight on day 0), and the relative liver gain means (liver weight on day 5)/(liver weight on day 0). Not the liver weight itself but the liver weight gain was chosen as indication because liver transplants vary in weight and the difference between the weight of each liver transplant (weight on day 0) and the weight of the regenerated transplant (weight on day 5) more appropriately indicates changes in the transplant.

One compound from patent US6660771B1, “Remedies for liver regeneration of transplanted liver” (Chugai Seiyaku Kabushiki Kaisha, priority 1999, dated 2003) can be followed below.

Regarding `CC(C)[C@H](N)C(=O)O` [Valine, L-valine], the Relative liver gain is 2.24 ± 0.18 and the “Liver weight gain” value was found to be 3.88 ± 0.66 g. Moreover, for the setting “listed as valine”, the Relative liver gain is on record as 2.24±0.18 and the “Liver weight gain” value came to 3.88 ± 0.66 g. In addition, the “Histopathological tests of the regenerated liver” value (day 5, hematoxylin-eosin stained sample) is given as “No abnormal observation”. Moreover, the “Edema or necrosis of hepatocytes” value (day 5, histology of regenerated liver) was “Neither control group nor valine group showed edema or necrosis”. Besides, the “Liver weight (g) on day 5” value (male Wistar rats, continuous i.v. transfusion 50 ml/kg/day up to day 5, mean±SD) is given as 7.05 ± 0.99 g. Further, the “Liver weight (g) on day 0” value (male Wistar rats, graft weight on day of transplantation (baseline), mean±SD) is recorded as 3.16 ± 0.45 g. Besides, for the setting “serum on day 5, valine group vs control group”, the “Biochemical blood tests (TP, ALB, GOT, GPT, LDH)” value is reported as “No significant difference”.
